For one test, the system named is Mus musculus. In words: The in vivo effect was tested in vitamin D-deplete normal NMRI mice by measuring calcium levels in serum. The test is classed as functional. Also noted: reference not given here.
The subject of another test is MG-63. In words: Biological evaluation in vitro on MG-63 cell line. Also noted: reference not given here. The test is classed as functional, Homo sapiens.
Another test concerns Keratinocyte. The experiment in a line: Biological evaluation in vitro on keratinocytes. The test is classed as functional. Also noted: reference not given here.
Test [1] addresses T1, Vitamin D3 receptor (Sus scrofa) (UniProt A3RGC1).
T1 sequence (whole entry): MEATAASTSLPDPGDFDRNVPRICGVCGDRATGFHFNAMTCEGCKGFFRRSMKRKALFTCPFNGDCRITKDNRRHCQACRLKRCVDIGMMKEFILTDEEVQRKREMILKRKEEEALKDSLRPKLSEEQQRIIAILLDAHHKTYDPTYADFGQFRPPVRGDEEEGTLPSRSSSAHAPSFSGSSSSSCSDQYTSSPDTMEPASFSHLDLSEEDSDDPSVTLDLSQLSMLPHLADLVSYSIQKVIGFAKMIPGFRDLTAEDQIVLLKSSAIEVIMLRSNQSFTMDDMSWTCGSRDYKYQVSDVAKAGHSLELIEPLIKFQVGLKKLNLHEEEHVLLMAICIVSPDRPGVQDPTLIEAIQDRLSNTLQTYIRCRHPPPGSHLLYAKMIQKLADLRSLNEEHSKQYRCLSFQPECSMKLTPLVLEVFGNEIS
In words: Inhibition of 1-alpha,25(OH)2 D3 binding to pig intestinal mucosa Vitamin D3 receptor (VDR). The test is classed as tissue-based.

A further test has as its system HL-60. In words: Biological evaluation in vitro on HL-60 cell line. Further details: reference not given here. The test is classed as functional, Homo sapiens.
For the next test, the system named is MCF7. The experiment in a line: Biological evaluation in vitro on MCF-7 cell line. The test is classed as functional, Homo sapiens. Also noted: reference not given here.

Regarding `C=C1C(=CC=C[C@H]2CCC[C@H]([C@H](C)CCCC(C)(C)O)C2(C)C)C[C@@H](O)C[C@@H]1O`, the Biological evaluation in the test on Mus musculus is less than 0.1; with MG-63, 3; in the test with Keratinocyte it was 30; in the test with HL-60, 2; with MCF7, 1. The Relative affinity in test [1] came out at 1.

Consider `C=C1C(=CC=C[C@H]2CCC[C@H]([C@H](C)CCCCC(O)(CC)CC)C2(C)C)C[C@@H](O)C[C@@H]1O`, for which the Biological evaluation is 20 in the test on Mus musculus; 800 with MG-63; 1500 with Keratinocyte; 600 with HL-60; 3000 in the test on MCF7. The compound also yielded a Relative affinity in test [1] of 60.

For `C=C1C(=CC=C[C@H]2CCC[C@H]([C@@H](C)CCCC(C)(C)O)C2(C)C)C[C@@H](O)C[C@@H]1O`, the Biological evaluation in the test with Mus musculus is on record as less than 0.1; in the test on MG-63, 1; in the test with Keratinocyte it was 8; in the test with HL-60 it was 1; in the test with MCF7, 0. In addition, in test [1], the Relative affinity was determined as 0.9.

As for `C=C1C(=CC=C[C@@H]2CCC[C@H]([C@H](C)CCCC(C)(C)O)C2(C)C)C[C@@H](O)C[C@@H]1O`, the Biological evaluation stood at 4 in the test with Mus musculus; 300 in the test on MG-63; 300 with Keratinocyte; 90 with HL-60; 300 with MCF7. In test [1], the Relative affinity worked out at 125.

`C=C1C(=CC=C[C@@H]2CCC[C@H]([C@@H](C)CCCC(C)(C)O)C2(C)C)C[C@@H](O)C[C@@H]1O`: the Biological evaluation in the test on Mus musculus was found to be 0.1; in the test with MG-63, 1; with Keratinocyte, 8; with HL-60, 1; in the test with MCF7, 0. In test [1], the Relative affinity turned out to be 0.5.
